“And” between values parts separate entries of the source, which are not always exact repeats. Equal entries are not always repeated. Toxic doses and inconclusive results are not listed. Cut-off read from the data, not from the text of the source: active = T/C of 150% or more; inactive = T/C below 125%.
Tested on: L1210 leukemia ip in BDF1 mice, survival T/C
Assay: NCI In Vivo Anticancer Drug Screen. Data for tumor model L1210 Leukemia (intraperitoneal) in B6D2F1 (BDF1) mice
Conditions: endpoint: mean survival time, higher = longer survival
Method in brief: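 Ratio derived from survival: compound-dosed mice over vehicle-dosed mice, all bearing a transplantable tumor.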

[1] = dose: 100.0 mg/kg/injection, schedule: Q04DX003 (ip), vehicle: Klucel (hydroxypropylcellulose) (HPC)
[2] = dose: 50.0 mg/kg/injection, schedule: Q01DX009 (ip), vehicle: saline
[3] = dose: 100.0 mg/kg/injection, schedule: Q01DX009 (ip), vehicle: saline
[4] = dose: 100.0 mg/kg/injection, schedule: Q04DX003 (ip), vehicle: saline
[5] = dose: 200.0 mg/kg/injection, schedule: Q01DX009 (ip), vehicle: saline
[6] = dose: 200.0 mg/kg/injection, schedule: Q04DX003 (ip), vehicle: saline
[7] = dose: 400.0 mg/kg/injection, schedule: Q01DX009 (ip), vehicle: saline
[8] = dose: 100.0 mg/kg/injection, schedule: Q04DX002 (ip), vehicle: Klucel (hydroxypropylcellulose) (HPC)
[9] = dose: 400.0 mg/kg/injection, schedule: Q04DX002 (ip), vehicle: Klucel (hydroxypropylcellulose) (HPC)
[10] = dose: 50.0 mg/kg/injection, schedule: Q04DX003 (ip), vehicle: Klucel (hydroxypropylcellulose) (HPC)
[11] = dose: 100.0 mg/kg/injection, schedule: Q01DX009 (ip), vehicle: carboxymethylcellulose (CMC)
[12] = dose: 100.0 mg/kg/injection, schedule: Q04DX003 (ip), vehicle: carboxymethylcellulose (CMC)
[13] = dose: 200.0 mg/kg/injection, schedule: Q01DX009 (ip), vehicle: carboxymethylcellulose (CMC)
[14] = dose: 200.0 mg/kg/injection, schedule: Q04DX003 (ip), vehicle: carboxymethylcellulose (CMC)
[15] = dose: 400.0 mg/kg/injection, schedule: Q01DX009 (ip), vehicle: carboxymethylcellulose (CMC)
[16] = dose: 100.0 mg/kg/injection, schedule: Q01DX001 (ip), vehicle: carboxymethylcellulose (CMC)
[17] = dose: 200.0 mg/kg/injection, schedule: Q01DX001 (ip), vehicle: carboxymethylcellulose (CMC)
[18] = dose: 400.0 mg/kg/injection, schedule: Q01DX001 (ip), vehicle: carboxymethylcellulose (CMC)

Measured: T/C

NC(=O)c1ccc([N+](=O)[O-])s1
inactive: dose: 25.0 mg/kg/injection, schedule: Q04DX003 (ip), vehicle: saline with Tween-80 98 % of control | dose: 50.0 mg/kg/injection, schedule: Q04DX003 (ip), vehicle: saline with Tween-80 104 % of control | [1] 100 % of control | dose: 100.0 mg/kg/injection, schedule: Q04DX003 (ip), vehicle: saline with Tween-80 96 % of control

CC[As](=O)(O)CC
inactive: [2] 97 % of control | [3] 120 % of control | [4] 101 % of control | [5] 105 % of control | [6] 107 % of control

CCOC(=O)C1=C(C)NC(C)=C(C(=O)OCC)C1
inactive: [2] 101 % of control | [3] 96 % of control | [4] 104 % of control | [5] 96 % of control | [6] 108 % of control | [7] 101 % of control | dose: 400.0 mg/kg/injection, schedule: Q04DX003 (ip), vehicle: saline 95 % of control

O=C(NC1OCC(O)C(O)C1O)Oc1ccccc1 (centres undefined)
inactive: [3] 108 % of control | dose: 100.0 mg/kg/injection, schedule: Q04DX003 (ip), vehicle: water 97 % of control | [5] 97 % of control | dose: 200.0 mg/kg/injection, schedule: Q04DX003 (ip), vehicle: water 96 % of control | [7] 101 % of control | dose: 400.0 mg/kg/injection, schedule: Q04DX003 (ip), vehicle: water 100 % of control

CCN(CCCl)c1ccc(/C=C/C2=[N+](C)c3ccccc3C2(C)C)c(C)c1
inactive: dose: 0.78 mg/kg/injection, schedule: Q01DX009 (ip), vehicle: saline 106 % of control | dose: 1.56 mg/kg/injection, schedule: Q01DX009 (ip), vehicle: saline 97 % of control | dose: 3.13 mg/kg/injection, schedule: Q01DX009 (ip), vehicle: saline 112 % of control | dose: 6.25 mg/kg/injection, schedule: Q04DX003 (ip), vehicle: saline 96 % of control | dose: 12.5 mg/kg/injection, schedule: Q04DX003 (ip), vehicle: saline 86 % of control

O=[N+]([O-])c1ccc(N=Cc2ccccc2O)cc1
inactive: dose: 50.0 mg/kg/injection, schedule: Q01DX001 (sc), vehicle: olive oil, sesame oil, peanut oil 98 % of control | dose: 100.0 mg/kg/injection, schedule: Q01DX001 (sc), vehicle: olive oil, sesame oil, peanut oil 98 % of control | dose: 200.0 mg/kg/injection, schedule: Q01DX001 (sc), vehicle: olive oil, sesame oil, peanut oil 98 % of control | dose: 400.0 mg/kg/injection, schedule: Q01DX001 (sc), vehicle: olive oil, sesame oil, peanut oil 108 % of control

CCOc1ccc(NC(=O)c2cc(C(=O)O)c(C(=O)Nc3ccc(OCC)cc3)cc2C(=O)O)cc1
inactive: [8] 109 % of control | [9] 109 % of control

Cc1cc2c(C)c3ccccc3c(C)c2c2ccccc12
inactive: [10] 98 % of control | [1] 95 % of control | dose: 200.0 mg/kg/injection, schedule: Q04DX003 (ip), vehicle: Klucel (hydroxypropylcellulose) (HPC) 104 % of control

CCN(CCNC(=O)Nc1ccc(OC)cc1)c1ccccc1
inactive: [11] 93 % of control and 100 % of control | [8] 103 % of control | dose: 100.0 mg/kg/injection, schedule: Q04DX002 (ip), vehicle: other 94 % of control and 98 % of control | [12] 96 % of control | [13] 93 % of control and 104 % of control | dose: 200.0 mg/kg/injection, schedule: Q04DX002 (ip), vehicle: Klucel (hydroxypropylcellulose) (HPC) 100 % of control | dose: 200.0 mg/kg/injection, schedule: Q04DX002 (ip), vehicle: other 91 % of control | [14] 100 % of control | [15] 96 % of control and 100 % of control | [9] 107 % of control | dose: 400.0 mg/kg/injection, schedule: Q04DX002 (ip), vehicle: other 102 % of control and 88 % of control | dose: 400.0 mg/kg/injection, schedule: Q04DX003 (ip), vehicle: carboxymethylcellulose (CMC) 96 % of control

CC1(C)CC2(CC3(C1)SCCS3)SCCS2
inactive: dose: 100.0 mg/kg/injection, schedule: Q01DX001 (ip), vehicle: saline 94 % of control | dose: 100.0 mg/kg/injection, schedule: Q04DX003 (ip), vehicle: acetone 89 % of control | dose: 200.0 mg/kg/injection, schedule: Q01DX001 (ip), vehicle: saline 97 % of control | dose: 200.0 mg/kg/injection, schedule: Q04DX003 (ip), vehicle: acetone 96 % of control | dose: 400.0 mg/kg/injection, schedule: Q01DX001 (ip), vehicle: saline 89 % of control | dose: 400.0 mg/kg/injection, schedule: Q04DX003 (ip), vehicle: acetone 91 % of control

O=C(CI)Nc1ccc(O)c2ccccc12
inactive: dose: 3.12 mg/kg/injection, schedule: Q04DX003 (ip), vehicle: water 111 % of control and 86 % of control | dose: 6.25 mg/kg/injection, schedule: Q01DX009 (ip), vehicle: water 99 % of control | dose: 6.25 mg/kg/injection, schedule: Q04DX003 (ip), vehicle: water 121 % of control and 91 % of control | dose: 12.5 mg/kg/injection, schedule: Q01DX009 (ip), vehicle: water 86 % of control | dose: 75.0 mg/kg/injection, schedule: Q04DX003 (ip), vehicle: water 93 % of control

CCCCCCC(=O)N(C(C)C)C(C)C
inactive: [16] 100 % of control | [11] 103 % of control and 104 % of control | dose: 100.0 mg/kg/injection, schedule: Q04DX002 (ip), vehicle: carboxymethylcellulose (CMC) 98 % of control and 103 % of control | [12] 104 % of control | [17] 98 % of control | [13] 97 % of control and 100 % of control | dose: 200.0 mg/kg/injection, schedule: Q04DX002 (ip), vehicle: carboxymethylcellulose (CMC) 93 % of control and 98 % of control | [14] 102 % of control | [18] 88 % of control | [15] 93 % of control | dose: 400.0 mg/kg/injection, schedule: Q04DX002 (ip), vehicle: carboxymethylcellulose (CMC) 92 % of control

O=S(=O)(OCCNc1ccccc1)c1ccccc1
inactive: dose: 75.0 mg/kg/injection, schedule: Q01DX001 (ip), vehicle: saline 101 % of control | dose: 150.0 mg/kg/injection, schedule: Q01DX001 (ip), vehicle: saline 98 % of control | dose: 300.0 mg/kg/injection, schedule: Q01DX001 (ip), vehicle: saline 98 % of control

O=C(Nc1ccccc1)Nc1cc(Cl)ccc1Cl
inactive: dose: 25.0 mg/kg/injection, schedule: Q04DX002 (ip), vehicle: Klucel (hydroxypropylcellulose) (HPC) 107 % of control | dose: 50.0 mg/kg/injection, schedule: Q04DX002 (ip), vehicle: Klucel (hydroxypropylcellulose) (HPC) 90 % of control | [8] 90 % of control

Cc1ccc(CSc2ccc([N+](=O)[O-])cc2[N+](=O)[O-])cc1
inactive: [16] 113 % of control | [17] 98 % of control | [18] 92 % of control

O=c1oc(=O)c2ccccc2c2ccccc12
inactive: dose: 100.0 mg/kg/injection, schedule: Q01DX001 (ip), vehicle: other 93 % of control | dose: 200.0 mg/kg/injection, schedule: Q01DX001 (ip), vehicle: other 96 % of control | dose: 400.0 mg/kg/injection, schedule: Q01DX001 (ip), vehicle: other 107 % of control

CC(=O)Nc1ccc2c(c1)Cc1cc(N=Cc3ccccn3)ccc1-2
inactive: [10] 87 % of control | [1] 90 % of control

— PubChem BioAssay AID248 (DTP/NCI, 2004)
